One assay concerns the target BACE2 (Homo sapiens (Human), UniProt Q9Y5Z0). Put plainly: In vitro enzymatic BACE2 FRET assay. Type of assay: biochemical. The note with it: read-out: IC50 IP (μM) BACE2 Enzyme.
The next assay addresses Cathepsin D (CatD) (Homo sapiens (Human), UniProt P07339). Put plainly: CatD assay. The conditions noted are these: read-out: IC50 IP (μM) CatD. Type of assay: biochemical.

BACE2, sequence (Q9Y5Z0 63-518): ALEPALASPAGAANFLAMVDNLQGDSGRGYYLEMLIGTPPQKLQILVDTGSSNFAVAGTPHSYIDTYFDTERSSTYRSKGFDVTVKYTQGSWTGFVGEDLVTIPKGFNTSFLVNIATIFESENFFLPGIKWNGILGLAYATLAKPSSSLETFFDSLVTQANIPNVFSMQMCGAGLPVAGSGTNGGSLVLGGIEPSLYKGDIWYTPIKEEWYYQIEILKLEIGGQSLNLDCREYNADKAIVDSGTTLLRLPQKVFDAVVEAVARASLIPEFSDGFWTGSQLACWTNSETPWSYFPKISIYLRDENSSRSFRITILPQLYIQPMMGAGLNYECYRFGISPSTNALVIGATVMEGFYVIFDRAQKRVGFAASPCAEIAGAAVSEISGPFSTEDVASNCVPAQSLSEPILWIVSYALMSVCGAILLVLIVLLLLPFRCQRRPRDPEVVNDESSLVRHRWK
Cathepsin D (CatD), sequence (P07339 65-412, species assumed): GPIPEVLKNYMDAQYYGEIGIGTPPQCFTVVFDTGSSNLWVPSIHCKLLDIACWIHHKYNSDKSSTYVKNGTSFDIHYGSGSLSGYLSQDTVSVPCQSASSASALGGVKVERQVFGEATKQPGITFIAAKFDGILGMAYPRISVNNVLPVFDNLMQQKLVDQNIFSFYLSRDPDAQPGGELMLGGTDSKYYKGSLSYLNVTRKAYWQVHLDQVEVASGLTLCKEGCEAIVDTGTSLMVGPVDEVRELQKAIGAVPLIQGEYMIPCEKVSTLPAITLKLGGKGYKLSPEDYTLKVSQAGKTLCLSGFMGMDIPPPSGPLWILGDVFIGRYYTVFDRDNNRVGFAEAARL
From the text for BACE2: In Vitro Enzymatic BACE1 and BACE2 FRET (Fluorescence Resonance Energy Transfer) Assays (Enzyme Assay Data in Table 1)

As usually defined, the IC50 is the concentration at which inhibition is half-maximal. As for `C[C@]1(c2cc(/C=C(\F)c3ccc(C#N)cn3)ccc2F)N=C(N)S[C@@]2(C(=O)NC3CC3)C[C@H]21` [Example 121, (1S,5S,6S)-3-amino-5-(5-((Z)-2-(5-cyanopyridin-2-yl)-2-fluorovinyl)-2-fluorophenyl)-N-cyclopropyl-5-methyl-2-thia-4-azabicyclo[4.1.0]hept-3-ene-1-carboxamide], the concentration for half-maximal inhibition (IC50) on BACE2 came to 0.164 µM; on Cathepsin D (CatD), 52.9 µM.
For `C[C@]1(c2cc(/C=C(\F)c3ccc(C#N)cn3)ccc2F)N=C(N)S[C@@]2(C(=O)NC3CCOCC3)C[C@H]21` [Example 128, (1S,5S,6S)-3-amino-5-(5-((Z)-2-(5-cyanopyridin-2-yl)-2-fluorovinyl)-2-fluorophenyl)-5-methyl-N-(tetrahydro-2H-pyran-4-yl)-2-thia-4-azabicyclo[4.1.0]hept-3-ene-1-carboxamide] the same measures were 0.0892 µM and 144 µM.
For `C[C@]1(c2cc(/C=C(\F)c3ccc(C#N)cn3)ccc2F)N=C(N)S[C@@]2(C(=O)N3CCN(c4ccccc4)CC3)C[C@H]21` [Example 131, 6-((Z)-2-(3-((1S,5S,6S)-3-amino-5-methyl-1-(4-phenylpiperazine-1-carbonyl)-2-thia-4-azabicyclo[4.1.0]hept-3-en-5-yl)-4-fluorophenyl)-1-fluorovinyl)nicotinonitrile] the same measures were 0.015 µM and 96.9 µM.
For `C[C@]1(c2cc(/C=C(\F)c3ccc(C#N)cn3)ccc2F)N=C(N)S[C@@]2(C(=O)N3CC4CC3CO4)C[C@H]21` (stereo partly drawn) [Example 132, 6-((Z)-2-(3-((1S,5S,6S)-3-amino-1-(2-oxa-5-azabicyclo[2.2.1]heptane-5-carbonyl)-5-methyl-2-thia-4-azabicyclo[4.1.0]hept-3-en-5-yl)-4-fluorophenyl)-1-fluorovinyl)nicotinonitrile] the same measures were 0.0758 µM and 1690 µM.
Take `C[C@@H]1CC[C@@H](C)N1C(=O)[C@]12C[C@H]1[C@@](C)(c1cc(/C=C(\F)c3ccc(C#N)cn3)ccc1F)N=C(N)S2` [Example 133, 6-((Z)-2-(3-((1S,5S,6S)-3-amino-1-((2R,5R)-2,5-dimethylpyrrolidine-1-carbonyl)-5-methyl-2-thia-4-azabicyclo[4.1.0]hept-3-en-5-yl)-4-fluorophenyl)-1-fluorovinyl)nicotinonitrile]: the IC50 turned out to be 0.099 µM at BACE2 and 146 µM on Cathepsin D (CatD).
On to `CN(C)[C@@H]1CCN(C(=O)[C@]23C[C@H]2[C@@](C)(c2cc(/C=C(\F)c4ccc(C#N)cn4)ccc2F)N=C(N)S3)C1` [Example 134, 6-((Z)-2-(3-((1S,5S,6S)-3-amino-1-((R)-3-(dimethylamino)pyrrolidine-1-carbonyl)-5-methyl-2-thia-4-azabicyclo[4.1.0]hept-3-en-5-yl)-4-fluorophenyl)-1-fluorovinyl)nicotinonitrile], for which the values for the IC50 at BACE2 and on Cathepsin D (CatD) were 0.8 µM and 400 µM, respectively.
Taken in the same sequence, the figures for `C[C@]1(c2cc(/C=C(\F)c3ccc(C#N)cn3)ccc2F)N=C(N)S[C@@]2(C(=O)N3CC[C@@H]4CCCC[C@H]4C3)C[C@H]21` [Example 135, 6-((Z)-2-(3-((1S,5S,6S)-3-amino-1-((4aS,8aR)-decahydroisoquinoline-2-carbonyl)-5-methyl-2-thia-4-azabicyclo[4.1.0]hept-3-en-5-yl)-4-fluorophenyl)-1-fluorovinyl)nicotinonitrile] were 0.00166 µM and 5.5 µM.
As to `CC1CC(C)CN(C(=O)[C@]23C[C@H]2[C@@](C)(c2cc(/C=C(\F)c4ccc(C#N)cn4)ccc2F)N=C(N)S3)C1` (stereo partly drawn) [Example 137, 6-((Z)-2-(3-((1S,5S,6S)-3-amino-1-(3,5-dimethylpiperidine-1-carbonyl)-5-methyl-2-thia-4-azabicyclo[4.1.0]hept-3-en-5-yl)-4-fluorophenyl)-1-fluorovinyl)nicotinonitrile], the values for the IC50 on BACE2 and at Cathepsin D (CatD) were 0.21 µM and 43.2 µM, respectively.
`CC1CCCN1C(=O)[C@]12C[C@H]1[C@@](C)(c1cc(/C=C(\F)c3ccc(C#N)cn3)ccc1F)N=C(N)S2` (stereo partly drawn) [Example 138, 6-((Z)-2-(3-((1S,5S,6S)-3-amino-5-methyl-1-(2-methylpyrrolidine-1-carbonyl)-2-thia-4-azabicyclo[4.1.0]hept-3-en-5-yl)-4-fluorophenyl)-1-fluorovinyl)nicotinonitrile]: the IC50 at BACE2 came out at 0.0924 µM; on Cathepsin D (CatD), 70.9 µM.
For `C[C@]1(c2cc(/C=C(\F)c3ccc(C#N)cn3)ccc2F)N=C(N)S[C@@]2(C(=O)N3CCC(C(F)(F)F)CC3)C[C@H]21` [Example 139, 6-((Z)-2-(3-((1S,5S,6S)-3-amino-5-methyl-1-(4-(trifluoromethyl)piperidine-1-carbonyl)-2-thia-4-azabicyclo[4.1.0]hept-3-en-5-yl)-4-fluorophenyl)-1-fluorovinyl)nicotinonitrile] the same measures were 0.00257 µM and 81.5 µM.
Consider `C[C@]1(c2cc(/C=C(\F)c3ccc(C#N)cn3)ccc2F)N=C(N)S[C@@]2(C(=O)N3CCCC(c4ccccc4)C3)C[C@H]21` (stereo partly drawn) [Example 140, 6-((Z)-2-(3-((1S,5S,6S)-3-amino-5-methyl-1-(3-phenylpiperidine-1-carbonyl)-2-thia-4-azabicyclo[4.1.0]hept-3-en-5-yl)-4-fluorophenyl)-1-fluorovinyl)nicotinonitrile], for which the IC50 at BACE2 came out at 0.0131 µM; on Cathepsin D (CatD), 12.8 µM.
For `C[C@]1(c2cc(/C=C(\F)c3ccc(C#N)cn3)ccc2F)N=C(N)S[C@@]2(C(=O)N3CCN(CC4CC4)CC3)C[C@H]21` [Example 141, 6-((Z)-2-(3-((1S,5S,6S)-3-amino-1-(4-(cyclopropylmethyl)piperazine-1-carbonyl)-5-methyl-2-thia-4-azabicyclo[4.1.0]hept-3-en-5-yl)-4-fluorophenyl)-1-fluorovinyl)nicotinonitrile] the same measures were 0.336 µM and 400 µM.
Taken in the same sequence, the figures for `C[C@]1(c2cc(/C=C(\F)c3ccc(C#N)cn3)ccc2F)N=C(N)S[C@@]2(C(=O)N3CCCC(C#N)C3)C[C@H]21` (stereo partly drawn) [Example 143, 6-((Z)-2-(3-((1S,5S,6S)-3-amino-1-(3-cyanopiperidine-1-carbonyl)-5-methyl-2-thia-4-azabicyclo[4.1.0]hept-3-en-5-yl)-4-fluorophenyl)-1-fluorovinyl)nicotinonitrile] were 0.0127 µM and 152 µM.
`C[C@]1(c2cc(/C=C(\F)c3ccc(C#N)cn3)ccc2F)N=C(N)S[C@@]2(C(=O)N3CCNC(=O)C3)C[C@H]21` [Example 144, 6-((Z)-2-(3-((1S,5S,6S)-3-amino-5-methyl-1-(3-oxopiperazine-1-carbonyl)-2-thia-4-azabicyclo[4.1.0]hept-3-en-5-yl)-4-fluorophenyl)-1-fluorovinyl)nicotinonitrile]: the IC50 on BACE2 turned out to be 0.0282 µM; at Cathepsin D (CatD), 400 µM.
Take `CC1CCCN(C(=O)[C@]23C[C@H]2[C@@](C)(c2cc(/C=C(\F)c4ccc(C#N)cn4)ccc2F)N=C(N)S3)C1` (stereo partly drawn) [Example 145, 6-((Z)-2-(3-((1S,5S,6S)-3-amino-5-methyl-1-(3-methylpiperidine-1-carbonyl)-2-thia-4-azabicyclo[4.1.0]hept-3-en-5-yl)-4-fluorophenyl)-1-fluorovinyl)nicotinonitrile]: the figures for the concentration for half-maximal inhibition (IC50) on BACE2 and at Cathepsin D (CatD) were 0.0174 µM and 42.6 µM, respectively.
For `COC(=O)[C@]12C[C@H]1[C@@](C)(c1cc(/C=C(\F)c3cnc(Br)cn3)ccc1F)N=C(N)S2` [Example 148, (1S,5S,6S)-methyl 3-amino-5-(5-((Z)-2-(5-bromopyrazin-2-yl)-2-fluorovinyl)-2-fluorophenyl)-5-methyl-2-thia-4-azabicyclo[4.1.0]hept-3-ene-1-carboxylate] the same measures were 1.03 µM and 231 µM.
Taken in the same sequence, the figures for `C#CCOc1cnc(/C(F)=C/c2ccc(F)c([C@@]3(C)N=C(N)S[C@@]4(C(=O)N(C)C)C[C@H]43)c2)cn1` [Example 153, (1S,5S,6S)-3-amino-5-(2-fluoro-5-((Z)-2-fluoro-2-(5-(prop-2-yn-1-yloxy)pyrazin-2-yl)vinyl)phenyl)-N,N,5-trimethyl-2-thia-4-azabicyclo[4.1.0]hept-3-ene-1-carboxamide] were 0.0518 µM and 106 µM.
Taken in the same sequence, the figures for `CN(C)C(=O)[C@]12C[C@H]1[C@@](C)(c1cc(/C=C(\F)c3cnc(OCC(F)(F)F)cn3)ccc1F)N=C(N)S2` [Example 155, (1S,5S,6S)-3-amino-5-(2-fluoro-5-((Z)-2-fluoro-2-(5-(2,2,2-trifluoroethoxy)pyrazin-2-yl)vinyl)phenyl)-N,N,5-trimethyl-2-thia-4-azabicyclo[4.1.0]hept-3-ene-1-carboxamide] were 0.0823 µM and 167 µM.
With `CC(Oc1cnc(/C(F)=C/c2ccc(F)c([C@@]3(C)N=C(N)S[C@@]4(C(=O)N(C)C)C[C@H]43)c2)cn1)c1ncco1` (stereo partly drawn) [Example 156, (1S,5S,6S)-3-amino-5-(2-fluoro-5-((Z)-2-fluoro-2-(5-(-1-(oxazol-2-yl)ethoxy)pyrazin-2-yl)vinyl)phenyl)-N,N,5-trimethyl-2-thia-4-azabicyclo[4.1.0]hept-3-ene-1-carboxamide], the concentration for half-maximal inhibition (IC50) on BACE2 was 0.135 µM; on Cathepsin D (CatD), 93.8 µM.
Regarding `CN(C)C(=O)[C@]12C[C@H]1[C@@](C)(c1cc(/C=C(\F)c3cnc(Br)cn3)ccc1F)N=C(N)S2` [Example 157, (1S,5S,6S)-3-amino-5-(5-((Z)-2-(5-bromopyrazin-2-yl)-2-fluorovinyl)-2-fluorophenyl)-N,N,5-trimethyl-2-thia-4-azabicyclo[4.1.0]hept-3-ene-1-carboxamide], the values for the half-inhibitory concentration (IC50) on BACE2 and on Cathepsin D (CatD) were 0.0262 µM and 39.1 µM, respectively.
For `CN(C)C(=O)[C@]12C[C@H]1[C@@](C)(c1cc(/C=C(\F)c3cnc(C#N)cn3)ccc1F)N=C(N)S2` [Example 169, (1S,5S,6S)-3-amino-5-(5-((Z)-2-(5-cyanopyrazin-2-yl)-2-fluorovinyl)-2-fluorophenyl)-N,N,5-trimethyl-2-thia-4-azabicyclo[4.1.0]hept-3-ene-1-carboxamide] the same measures were 0.0174 µM and 95.5 µM.

Values taken from patent publication US10246429B2, “Vinyl fluoride cyclopropyl fused thiazin-2-amine compounds as beta-secretase inhibitors and methods of use” (AMGEN INC., priority 2015, dated 2019).
